Reference: US7417056B2, “5-substituted quinoline and isoquinoline derivatives, a process for their production and their use as anti-inflammatory agents” (Schering AG, priority 2004, dated 2008)
pEC50: −log10 of the molar value.

Experiments:
[1] = test system: secretion of the cytokine IL-8, induced by lipopolysaccharide (LPS), in the human monocyte cell line THP-1; assay: Inhibition of LPS-induced IL-8 secretion in THP-1 cells (ELISA); assay type: cell-based; details: efficiency of dexamethasone = 100%
Experimental: The concentration of the cytokines was determined in the supernatant by means of commercially available ELISA kits.

[2] = test system: tyrosine aminotransferase (TAT); assay: Induction of tyrosine aminotransferase (TAT) in rat hepatoma cells; assay type: cell-based; details: for efficiency, induction of TAT: 24 hours, efficiency of dexamethasone = 100%; for pEC50: treated for 24 hours
Description: One of the most frequent undesirable actions of a glucocorticoid therapy is the so-called “steroid diabetes” [cf. Hatz, H. J., Glucocorticoide: Immunologische Grundlagen, Pharmakologie und Therapierichtlinien [Glucocorticoids: Immunological Principles, Pharmacology and Therapy Guidelines], Wissenschaftliche Verlagsgesellschaft mbH, Stuttgart, 1998]. The reason for this is the stimulation of gluconeogenesis in the liver by induction of the enzymes that are responsible for this and by free amino acids that are produced from the degradation of proteins (catabolic action of glucocorticoids). A key enzyme of the catabolic metabolism in the liver is the tyrosine aminotransferase (TAT). The activity of this enzyme can be determined photometrically from cell cultures of treated rat hepatoma cells. The cells are treated for 24 hours with the test substances, and then the TAT activity is measured.

[3] = Skin atrophy in rats (skin fold thickness measurement); assay type: in vivo; details: local, daily for 18 days
Experimental: Another undesirable action that occurs especially after local therapy is the induction of a skin atrophy, which leads to the skin's loss of thickness, elasticity, and ultimately the mechanical resistance of the skin. The potential of a substance to induce skin atrophy can be determined in rats. The animals are treated for 18 days daily and locally in equieffective dosages with the test substances. By means of a skin fold thickness measurement, the reduction of the skin thickness over the treatment time can be tracked.

SMILES | efficiency, inhibition of IL-8 secretion [1] [%] | efficiency, induction of TAT [2] [%] | reduction of the skin thickness ([3]; concentration 0.1% (maximum anti-inflammatory action is achieved)) [%] | pEC50 [2] | reduction of the skin thickness ([3]; concentration 0.01% (maximum anti-inflammatory action is achieved)) [%]
Cc1ccc2c(NCC(O)(CC(C)(C)c3cc(F)cc4c3OCC4)C(F)(F)F)cccc2n1 (centres unmarked) [Example 1, 5-[4-(5-Fluoro-2,3-dihydrobenzofuran-7-yl)-2-hydroxy-4-methyl-2-trifluoromethyl-pentylamino]-2-methylquinoline] | 74 | 93 | 41 |  | 
Cc1ccc2c(NCC(O)(CC(C)(C)c3cc(F)cc4c3OCC4)C(F)(F)F)ccc(F)c2n1 (centres unmarked) [Example 10, 8-Fluoro-5-[4-(5-Fluoro-2,3-dihydrobenzofuran-7-yl)-2-hydroxy-4-methyl-2-trifluoromethyl-pentylamino]-2-methylquinoline] | 86 | 92 |  | 8.00 | 
Cn1ccc2c(NCC(O)(CC(C)(C)c3cc(F)cc4c3OCC4)C(F)(F)F)cccc2c1=O (centres unmarked) [Example 11, 5-[4-(5-Fluoro-2,3-dihydrobenzofuran-7-yl)-2-hydroxy-4-methyl-2-trifluoromethyl-pentylamino]-2-methylisoquinol-1(2H)-one] | 61 | 86 |  | 8.40 | 
CCC(=O)O[C@]1(C(=O)CCl)[C@@H](C)C[C@H]2[C@@H]3CCC4=CC(=O)C=C[C@]4(C)[C@@]3(F)[C@@H](O)C[C@@]21C [clobetasol propionate, reference compound] |  |  |  |  | 65
C[C@]12C=CC(=O)C=C1CC[C@@H]1[C@@H]2[C@@H](O)C[C@@]2(C)[C@H]1CC[C@]2(O)C(=O)CO [prednisolone, reference compound] | 96 |  |  |  | 
